Legend:
HSP90 = test: Quantification of biotin-labeled contents in platelets (biotin quantitation kit); type: cell-based, BALB/c mice; conditions: 2 h
Method: The fresh platelets were incubated with HAC-B at 2.5, 5, 10, 20, and 40 μM for 2 h, and the corresponding lysates were collected using the IP lysis buffer containing PMSF and phosphatase inhibitor cocktail. The biotin-labeled contents in each lysate supernatant were quantified by the QuantTag™ biotin quantitation kit, and the relevant engineering efficiency was calculated based on dividing the amount of biotin-labeled contents by the HAC-B amount added.

HSP90 and BRD4 = test: co-Immunoprecipitation of BRD4 with anti-HSP90 antibody in 4T1 cell lysate; type: cell-based, murine; conditions: 4T1 cells, 10 μM, 2 h
Method: co-Immunoprecipitation assay: 2×10^6 4T1 cells were seeded in T75 cell culture flasks and cultured for 24 h. Then, the medium in the corresponding flasks was replaced with 15 mL of blank medium with DMSO or iHAC (10 μM). Following incubation for another 2 h, the cells were washed with cold PBS twice and digested with 2 mL of trypsin. As for the iDePMP treatment, 1×10^9 iDePLTs were generated as the above engineering method and suspended in 3 mL of PBS containing thrombin (0.5 U/mL), followed by incubation at 37° C. for 0.5 h. The platelet suspensions were evenly divided and subjected to a sequentially combined centrifugation at 5000 g for 5 min and at 11,000 g for 1 min, followed by further centrifugation at 2500 g for 15 min at room temperature. The combined supernatants were supplemented to 12 mL blank medium to treat 4T1 cells in the relevant flasks. After incubation for 6 h, the cells were washed with cold PBS twice and digested with 2 mL of trypsin. The cell pellets were collected through centrifugation at 1200 rpm for 3 min and washed with cold PBS. The final pellets were directly lysed on ice with RIPA buffer containing PMSF (1 mM) and the phosphatase inhibitor cocktail for 30 min. […] The total proteins in the precleared samples were quantified through the BCA assay, and 20 μL of the precleared solution samples were saved as the input samples. […]

4T1-Luc tumors = test: Treatment efficacy in post-surgery BALB/c mice with orthotopic 4T1-Luc breast cancer; type: in vivo; conditions: 2×10^8 platelets i.v. or free HAC 5 mg/kg i.p., every third day for 4 times
Source text: Evaluation of treatment efficacy and biosafety in post-surgical 4T1 tumor-bearing mice: Post-surgery BALB/c mice with orthotopic 4T1-Luc-breast cancer were used to evaluate the tumor recurrence, metastasis, and biosafety profiles after iDePLT or eDePLT treatments. The treatment efficacy of iDePLT was also studied in the post-surgery NSG mice with orthotopic patient-derived xenografts (PDX) breast cancer.
Establishment of post-surgery models with BALB/c mice: 1×10^6 4T1-Luc cells were suspended in a PBS containing 50% Matrigel® (Corning®/354234). Female 8-week-old BALB/c mice were anesthetized and injected with 50 μL of the cell suspensions into the fourth mammary gland fat pads. After the tumor volumes reached about 100-200 mm^3, the tumor-bearing mice were anesthetized and placed under the microscope, followed by surgical resection to totally remove the visible tumor tissues. Following wound closure, the post-surgery mice were randomly assigned to different treatment groups.
Evaluation of treatment efficacy and biosafety in post-surgery BALB/c mice: As for the treatments with platelets, the platelets were freshly isolated from the healthy female BALB/c mice and suspended in PBS for intravenous (i.v.) injection after the necessary engineering. The free iHAC and eHAC were intraperitoneally (i.p.) injected after dispersing in the formulation of 10% DMSO, 40% polyethylene glycol 300 (PEG300), 5% Tween TM-80, and 45% saline. From the same day after surgery, the mice were anesthetized and i.p. injected with D-luciferin potassium salt (150 mg/kg) in 100 μL in PBS. The bioluminescence of post-surgery mice in each group was detected by Perkin Elmer IVIS every five days from the day of surgery, and intensity was analyzed by Living Image Software v.4.3.1. […] During the treatment course, the body weight of each post-surgery mouse was monitored daily. […]

Row | SMILES | HAC-B concentration at which biotin-labeled content inside platelets reaches a peak (HSP90) [µM] | BRD4 co-precipitated with anti-HSP90 antibody (HSP90 and BRD4) | lung metastasis (bioluminescence) (4T1-Luc tumors) | tumor recurrence at the surgical site (bioluminescence) (4T1-Luc tumors)
1 | N#CCN(C(=O)CCCC[C@@H]1SC[C@@H]2NC(=O)N[C@@H]21)S(=O)(=O)c1ccc(C(=O)NCCCn2c(Sc3cc4c(cc3I)OCO4)nc3c(N)ncnc32)cc1 [HAC-B, N-(3-(6-amino-8-((6-iodobenzo[d][1,3]dioxol-5-yl)thio)-9H-purin-9-yl)propyl)-4-(N-(cyanomethyl)-N-(5-((3aS,4S,6aR)-2-oxohexahydro-1H-thieno[3,4-d]imidazol-4-yl)pentanoyl)sulfamoyl)benzamide] | 20 |  |  | 
2 | Cc1sc2c(c1C)C(c1ccc(Cl)cc1)=N[C@@H](CC(=O)NCc1cn(CCCC(=O)N(CC#N)S(=O)(=O)c3ccc(C(=O)NCCCn4c(Sc5cc6c(cc5I)OCO6)nc5c(N)ncnc54)cc3)nn1)c1nnc(C)n1-2 [iHAC, (S)—N-(3-(6-amino-8-((6-iodobenzo[d][1,3]dioxol-5-yl)thio)-9H-purin-9-yl)propyl)-4-(N-(4-(4-((2-(4-(4-chlorophenyl)-2,3,9-trimethyl-6H-thieno[3,2-f][1,2,4]triazolo[4,3-a][1,4]diazepin-6-yl)acetamido)methyl)-1H-1,2,3-triazol-1-yl)butanoyl)-N-(cyanomethyl)sulfamoyl)benzamide] |  | could considerably enhance the interaction between BRD4 and HSP90 | started to exhibit obvious lung metastasis from day 15 after surgery | showed some anti-relapse effect during the dosing time, but the mice finally showed substantially recurrent tumors on day 20

From patent publication US20250327028A1, “ENGINEERED PLATELETS AS TARGETED PROTEIN DEGRADERS” (Wisconsin Alumni Research Foundation, priority 2024, published 2025)
